The values below come from patent US8742106B2 (Novartis AG, priority 2009, dated 2014).

The structures appear in SMILES notation.

Experiment [1] concerns the target T1, human orexin 1 receptors (Homo sapiens (Human), UniProt O43613). Kind of experiment: Radioligand Binding Assay I ([125I]orexin A competition, cell membranes). Particulars: read-out: binding I hOx1R Kd. As to the method: (§1) Radioligand Binding Assay I
(§2) For crude cell membrane preparations, cells (CHO, Chinese hamster ovary or HEK, human embryonic kidney) expressing human orexin 1 or human orexin 2 receptors, were washed with HEPES (10 mM, pH 7.5), scraped off the culture plates with the same buffer, and centrifuged at 4° C. for 5 min at 2500×g. The cell pellet was either stored at −80° C. or used directly. Before the experiments, cell membranes were re-suspended in binding assay buffer (10 mM HEPES, 0.5% (w/v) bovine serum albumin, pH 7.5) by homogenisation with a Polytron homogeniser at 50 Hz for 20 s. Cell membranes were also used as made available by commercial providers.
(§3) In initial saturation experiments (to calculate Bmax), cell homogenates (150 μl) were incubated with 25-300 pM of the radioligand ([^125I]orexin A, 50 μl), 8 concentrations in triplicates in the presence or absence Orexin A (1 μM, 50 μl) to define non specific binding. Bound radioactivity was measured, and data were analysed with the program XLFIT or Graphpad Prism. Protein concentration was determined according to the Bradford/BioRad Protein Assay Kit.
(§4) In competition experiments, cell homogenates (150 μl) were incubated in assay buffer (10 mM HEPES, pH 7.5, 0.5% (w/v) bovine serum albumin, 5 mM MgCl2, 1 mM CaCl2, and tween 0.05%) for 1 h at room temperature with about 100 pM of the radioligand ([^125I]orexin A, 2100 Ci/mmole, 50 μl), and with various concentrations of compounds of the invention (50 μl) in triplicates; non-specific binding was determined in the presence of Orexin A (1 μM). Reactions were terminated by vacuum filtration, 3 washes of ice cold wash buffer (Tris-HCl pH 7.4/10 mM, with NaCl 154 mM).

Experiment [2] has as its target T2, human orexin 2 receptors (Homo sapiens (Human), UniProt O43614). The description is as above. Particulars: read-out: binding I hOx2R Kd. As to the method:
as §1, §2, §3, §4

In experiment [3] the target is T1, human orexin 1 receptors. Briefly: Calcium Accumulation in Cells (FLIPR), antagonism of orexin A. Particulars: antagonism of orexin A, Cheng-Prusoff corrected; read-out: FLIPR hOx1R Ki. The experiment is classed as cell-based.
Experiment [4] addresses T2, human orexin 2 receptors. The description is as above. It is filed as cell-based. The note with it: antagonism of orexin A, Cheng-Prusoff corrected; read-out: FLIPR hOx2R Ki. The gist of the method:
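Cells expressing human orexin 2 receptor, loaded with Fluo4-AM (2 μM) plus probenecid (0.1 mM) for 1 h, then washed. Antagonism read as inhibition of the orexin A calcium fluorescence signal (FLIPR).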

Experiment [5] deals with T1, human orexin 1 receptors. Briefly: Radioligand Binding Assay II ([3H]-SB649868 competition, cell membranes). Particulars: read-out: binding II hOx1R Kd. In outline: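 Membranes from CHO or HEK cells expressing human orexin 1 or orexin 2 receptors incubated 1 h at room temperature with about 1 nM [3H]-SB649868 and compound (triplicates) in HEPES pH 7.5 buffer with BSA, MgCl2, CaCl2, tween. Nonspecific binding defined with 10 μM almorexant; filtration read-out, Kd reported.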

The target in experiment [6] is T2, human orexin 2 receptors. The description is as above. The note with it: read-out: binding II hOx2R Kd. The gist of the method: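 Competition binding used membranes from CHO or HEK cells expressing human orexin 2 receptor, incubated 1 h at room temperature with ~1 nM [3H]-SB649868 in 10 mM HEPES pH 7.5, 0.5% BSA, 5 mM MgCl2, 1 mM CaCl2, 0.05% tween. Nonspecific binding was defined with 10 μM almorexant, and bound activity was measured after filtration.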

T2 sequence (O43614 whole entry): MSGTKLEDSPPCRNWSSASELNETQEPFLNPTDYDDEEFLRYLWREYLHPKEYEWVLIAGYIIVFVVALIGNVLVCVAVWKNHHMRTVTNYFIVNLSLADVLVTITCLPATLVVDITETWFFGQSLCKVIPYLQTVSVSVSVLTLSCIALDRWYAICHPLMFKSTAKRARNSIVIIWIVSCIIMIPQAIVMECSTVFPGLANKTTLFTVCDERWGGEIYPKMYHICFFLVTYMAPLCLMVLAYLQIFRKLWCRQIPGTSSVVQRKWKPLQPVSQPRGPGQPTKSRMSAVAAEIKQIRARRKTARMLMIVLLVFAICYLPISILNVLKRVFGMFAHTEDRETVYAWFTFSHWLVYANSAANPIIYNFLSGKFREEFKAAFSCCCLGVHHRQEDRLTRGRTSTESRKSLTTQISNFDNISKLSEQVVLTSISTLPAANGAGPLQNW
T1 sequence (O43613 whole entry): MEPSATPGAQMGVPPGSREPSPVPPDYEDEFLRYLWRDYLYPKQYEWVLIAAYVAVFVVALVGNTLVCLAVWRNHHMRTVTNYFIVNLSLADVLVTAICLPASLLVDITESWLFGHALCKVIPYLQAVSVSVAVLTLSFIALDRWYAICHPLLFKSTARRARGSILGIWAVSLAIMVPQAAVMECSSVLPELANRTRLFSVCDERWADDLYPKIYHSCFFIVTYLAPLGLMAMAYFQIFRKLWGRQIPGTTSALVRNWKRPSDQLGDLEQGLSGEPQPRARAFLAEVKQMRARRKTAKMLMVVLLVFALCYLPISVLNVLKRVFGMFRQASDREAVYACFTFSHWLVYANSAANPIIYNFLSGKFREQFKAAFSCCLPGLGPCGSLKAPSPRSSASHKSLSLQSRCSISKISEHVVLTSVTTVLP

Regarding `CC(Oc1cc(C(F)(F)F)c2c(-c3ccccc3)nn(C)c2n1)C(=O)N[C@@H](C)c1ccccc1` (single isomer, unassigned) [Example 1.73], the Kd came out at 225 nM at human orexin 1 receptors [1] and 162 nM on human orexin 2 receptors [2]. The Ki at human orexin 1 receptors [3] was found to be 226 nM; on human orexin 2 receptors [4], 91 nM.

With `C[C@H](NC(=O)COc1cc(C(F)(F)F)c2c(-c3ccccc3F)nn(C)c2n1)c1ccccc1` [Example 1.1, (S)-2-(3-(2-fluorophenyl)-1-methyl-4-(trifluoromethyl)-1H-pyrazolo[3,4-b]pyridin-6-yloxy)-N-(1-phenylethyl)acetamide], the Kd on human orexin 1 receptors [1] is 185 nM; on human orexin 2 receptors [2] it was 79 nM. Further, the Ki was 156 nM on human orexin 1 receptors [3] and 30 nM at human orexin 2 receptors [4].

With `Cc1cc(OCC(=O)N[C@@H](C)c2ccccc2)nc2c1c(-c1ccccc1)nn2C` [Example 1.13, (S)-2-(1,4-dimethyl-3-phenyl-1H-pyrazolo[3,4-b]pyridin-6-yloxy)-N-(1-phenylethyl)acetamide], the results for the Kd at human orexin 1 receptors [1] and on human orexin 2 receptors [2] were 45 nM and 143 nM, respectively. Further, the Ki is 181 nM on human orexin 1 receptors [3] and 233 nM at human orexin 2 receptors [4].

Turning to `Cc1cc(OCC(=O)NC(C)CCc2ccccc2)nc2c1c(-c1ccccc1)nn2C` (stereo not drawn) [Example 1.16, 2-(1,4-dimethyl-3-phenyl-1H-pyrazolo[3,4-b]pyridin 6-yloxy)-N-(4-phenylbutan-2-yl)acetamide], the figures for the Kd on human orexin 1 receptors [1] and on human orexin 2 receptors [2] were 116 nM and 28 nM, respectively. Further, the Ki at human orexin 1 receptors [3] was determined as 456 nM; on human orexin 2 receptors [4], 49 nM.

For the molecule `C[C@H](NC(=O)COc1cc(C(F)(F)F)c2c(-c3ccccc3)nn(C)c2n1)c1ccccc1` [Example 1.17, (S)-2-(1-methyl-3-phenyl-4-(trifluoromethyl)-1H-pyrazolo[3,4-b]pyridin-6-yloxy)-N-(1-phenylethyl)acetamide], the results for the dissociation constant (Kd) at human orexin 1 receptors [1] and at human orexin 2 receptors [2] were 64 nM and 121 nM, respectively. Besides, the Ki at human orexin 1 receptors [3] worked out at 175 nM; on human orexin 2 receptors [4], 108 nM.

Turning to `CC(NC(=O)COc1cc(C(F)(F)F)c2c(-c3ccccc3)nn(C)c2n1)c1ccccc1` (stereo not drawn) [Example 1.18, 2-(1-methyl-3-phenyl-4-(trifluoromethyl)-1H-pyrazolo[3,4-b]pyridin-6-yloxy)-N-(1-phenylethyl)acetamide], the results for the dissociation constant Kd on human orexin 1 receptors [1] and at human orexin 2 receptors [2] were 36 nM and 63 nM, respectively. Moreover, the Ki turned out to be 48 nM on human orexin 1 receptors [3] and 26 nM on human orexin 2 receptors [4].

As to `COc1cccc(-c2nn(C)c3nc(OCC(=O)N[C@@H](C)c4ccccc4)cc(C(F)(F)F)c23)c1` [Example 1.19, (S)-2-(3-(3-methoxyphenyl)-1-methyl-4-(trifluoromethyl)-1H-pyrazolo[3,4-b]pyridin-6-yloxy)-N-(1-phenylethyl)acetamide], the Kd on human orexin 1 receptors [1] amounted to 101 nM; at human orexin 2 receptors [2], 855 nM. The results for the Ki at human orexin 1 receptors [3] and at human orexin 2 receptors [4] were 108 nM and 187 nM, respectively.

Regarding `COc1ccc(-c2nn(C)c3nc(OCC(=O)N[C@@H](C)c4ccccc4)cc(C(F)(F)F)c23)cc1` [Example 1.20], the Kd at human orexin 1 receptors [1] is 299 nM; on human orexin 2 receptors [2], 187 nM. Besides, the inhibitory constant (Ki) on human orexin 1 receptors [3] was determined as 378 nM; at human orexin 2 receptors [4], 76 nM.

On to `C[C@H](NC(=O)COc1cc(C(F)(F)F)c2c(-c3cccc(F)c3)nn(C)c2n1)c1ccccc1` [Example 1.22, (S)-2-(3-(3-fluorophenyl)-1-methyl-4-(trifluoromethyl)-1H-pyrazolo[3,4-b]pyridin-6-yloxy)-N-(1-phenylethyl)acetamide], for which the values for the Kd at human orexin 1 receptors [1] and at human orexin 2 receptors [2] were 88 nM and 94 nM, respectively. The Ki on human orexin 1 receptors [3] came out at 107 nM; at human orexin 2 receptors [4] it was 50 nM.

With `C[C@H](NC(=O)COc1cc(C(F)(F)F)c2c(-c3ccc(F)cc3)nn(C)c2n1)c1ccccc1` [Example 1.23, (S)-2-(3-(4-fluorophenyl)-1-methyl-4-(trifluoromethyl)-1H-pyrazolo[3,4-b]pyridin-6-yloxy)-N-(1-phenylethyl)acetamide], the Kd on human orexin 1 receptors [1] was 131 nM; on human orexin 2 receptors [2], 278 nM. Besides, the Ki came to 128 nM at human orexin 1 receptors [3] and 136 nM at human orexin 2 receptors [4].

Take `Cc1cc(OCC(=O)NC(C)c2ccc3c(ccn3C)c2)nc2c1c(C1CC1)nn2C` (stereo not drawn) [Example 6.59, 2-(3-cyclopropyl-1,4-dimethyl-1H-pyrazolo[3,4-b]pyridin-6-yloxy)-N-(1-(1-methyl-1H-indol-5-yl)ethyl)acetamide]: the inhibition constant (Ki) on human orexin 1 receptors [3] worked out at 127 nM; on human orexin 2 receptors [4], 63 nM. Moreover, the Kd came to 70 nM on human orexin 1 receptors [5] and 162 nM at human orexin 2 receptors [6].

In the case of `Cc1ccc2c(n1)CCC2NC(=O)COc1cc(C)c2c(C3CC3)nn(C)c2n1` (stereo not drawn) [Example 6.61, 2-(3-cyclopropyl-1,4-dimethyl-1H-pyrazolo[3,4-b]pyridin-6-yloxy)-N-(2-methyl-6,7-dihydro-5H-cyclopenta[b]pyridin-5-yl)acetamide], the figures for the Ki on human orexin 1 receptors [3] and on human orexin 2 receptors [4] were 227 nM and 93 nM, respectively. The Kd was found to be 157 nM on human orexin 1 receptors [5] and 159 nM at human orexin 2 receptors [6].

Consider `Cc1ccc2c(n1)CC[C@@H]2NC(=O)COc1cc(C)c2c(C3CC3)nn(C)c2n1` [Example 6.63, (S)-2-(3-cyclopropyl-1H-dimethyl-1H-pyrazolo[3,4-b]pyridin-6-yloxy)-N-(2-methyl-6,7-dihydro-5H-cyclopenta[b]pyridin-5-yl)acetamide], for which the Ki at human orexin 1 receptors [3] is 109 nM; on human orexin 2 receptors [4] it was 22 nM. The Kd is 54 nM at human orexin 1 receptors [5] and 42 nM on human orexin 2 receptors [6].

On to `CCOc1ccc2c(c1)CC[C@@H]2NC(=O)COc1cc(C)c2c(C3CC3)nn(C)c2n1` [Example 6.68, (S)-2-(3-cyclopropyl-1,4-dimethyl-1H-pyrazolo[3,4-b]pyridin-6-yloxy)-N-(5-ethoxy-2,3-dihydro-1H-inden-1-yl)acetamide], for which the Ki on human orexin 1 receptors [3] was determined as 71 nM; at human orexin 2 receptors [4], 151 nM. Also, the results for the Kd at human orexin 1 receptors [5] and on human orexin 2 receptors [6] were 52 nM and 317 nM, respectively.

As to `Cc1ccc2c(n1)CC[C@@H]2NC(=O)COc1cc(C(F)(F)F)c2c(-c3cc(C)oc3C)nn(C)c2n1` [Example 6.79, (S)-2-(3-(2,5-dimethylfuran-3-yl)-1-methyl-4-(trifluoromethyl)-1H-pyrazolo[3,4-b]pyridin-6-yloxy)-N-(2-methyl-6,7-dihydro-5H-cyclopenta[b]pyridin-5-yl)acetamide], the Ki at human orexin 1 receptors [3] turned out to be 23 nM; at human orexin 2 receptors [4], 7 nM. For the same molecule, the Kd at human orexin 1 receptors [5] stood at 34 nM; on human orexin 2 receptors [6] it was 90 nM.

Regarding `COc1ccc([C@H](C)NC(=O)COc2cc(C(F)(F)F)c3c(-c4cc(C)oc4C)nn(C)c3n2)cc1` [Example 6.80, (S)-2-(3-(2,5-dimethylfuran-3-yl)-1-methyl-4-(trifluoromethyl)-1H-pyrazolo[3,4-b]pyridin-6-yloxy)-N-(1-(4-methoxyphenyl)ethyl)acetamide], the Ki on human orexin 1 receptors [3] came out at 6 nM; on human orexin 2 receptors [4], 7 nM. In addition, the values for the Kd on human orexin 1 receptors [5] and on human orexin 2 receptors [6] were 12 nM and 32 nM, respectively.

For `COc1cc2c(cc1OC)C(NC(=O)COc1cc(C)c3c(C4CC4)nn(C)c3n1)CC2` (stereo not drawn) [Example 7.1, 2-(3-cyclopropyl-1,4-dimethyl-1H-pyrazolo[3,4-b]pyridin-6-yloxy)-N-(5,6-dimethoxy-2,3-dihydro-1H-inden-1-yl)acetamide], the Ki at human orexin 1 receptors [3] was 140 nM; at human orexin 2 receptors [4], 52 nM. Besides, the Kd on human orexin 1 receptors [5] was found to be 55 nM; on human orexin 2 receptors [6] it was 65 nM.

Consider `Cc1ccc([C@H](C)NC(=O)COc2cc(C)c3c(C4CC4)nn(C)c3n2)cc1` [Example 7.11, (S)-2-(3-cyclopropyl-1,4-dimethyl-1H-pyrazolo[3,4-b]pyridin-6-yloxy)-N-(1-p-tolylethyl)acetamide], for which the values for the Ki on human orexin 1 receptors [3] and at human orexin 2 receptors [4] were 50 nM and 24 nM, respectively. The figures for the dissociation constant Kd at human orexin 1 receptors [5] and at human orexin 2 receptors [6] were 18 nM and 17 nM, respectively.

The term Kd denotes the free concentration of one partner at which half of the binding sites on the other are occupied at equilibrium, for simple one-to-one binding. As usually defined, the Ki is the dissociation constant of the complex between target and ligand, obtained from inhibition or displacement.
